Results: US20220257592A1, “METHODS OF TREATING CANCER” (HOFFMANN-LA ROCHE INC., priority 2019, published 2022)

Legend:
[1] = target: cytochrome P450 3A4 (CYP3A4) (Homo sapiens, UniProt P08684); experiment: In vitro metabolism studies; type: in vitro ADME
[2] = tested on: cancer having at least one molecular alteration in one or more of ALK, ROS1, TrkA, TrkB and TrkC; settings: early clinical studies; cited from earlier work
[3] = Expanded safety population (338 adult and 30 pediatric patients), fractures; type: in vivo, human
Excerpt: In adult patients, some fractures occurred in the setting of a fall or other trauma to the affected area, while in pediatric patients, all fractures occurred in patients with minimal or no trauma. In general, there was inadequate assessment for tumor involvement at the site of fracture; however, radiologic abnormalities possibly indicative of tumor involvement were reported in some patients. In both adult and pediatric patients, most fractures were hip or other lower extremity fractures (e.g., femoral or tibial shaft). In a limited number of patients, bilateral femoral neck fractures occurred. The median time to fracture was 3.8 months (range 0.3 to 18.5 months) in adults and 4.0 months (range: 1.8 months to 7.4 months) in pediatric patients.

CN1CCN(c2ccc(C(=O)Nc3n[nH]c4ccc(Cc5cc(F)cc(F)c5)cc34)c(NC3CCOCC3)c2)CC1 [Entrectinib, N-[5-(3,5-difluorobenzyl)-1H-indazol-3-yl]-4-(4-methyl-piperazin-1-yl)-2-(tetrahydro-pyran-4-ylamino)-benzamide]
CYP3A4 substrate status [1]: sensitive substrate of CYP3A4 | route of clearance ([1]; in vitro studies): predominantly through hepatic metabolism | share of metabolism by CYP3A4 ([1]; in vitro studies): ~76% | antitumor effects in patients [2]: antitumor effects | Fractures ([3]; 30 pediatric patients): 23% | Fractures ([3]; 338 adult patients): 5% | Entrectinib interrupted due to fractures ([3]; adults): 41% | Median time to fracture ([3]; adults, range 0.3 to 18.5 months): 3.8 months | Discontinuation due to fractures ([3]; human, in vivo): No patients discontinued | Risk of fractures ([3]; human, in vivo): increases the risk of fractures | Entrectinib interrupted due to fractures ([3]; pediatric patients): 43% | Median time to fracture ([3]; pediatric patients, range: 1.8 months to 7.4 months): 4.0 months
